Measurements taken from publication PMC9124866, “Structure-Activity Relationships of Dopamine Transporter Pharmacological Chaperones” (Frontiers in Cellular Neuroscience, 2022).
Counter-ions that a name gives are not always drawn. Like-named read-outs stand apart in the source and are kept apart here.

How the values were obtained:
DAT [1] = target: T1, DAT (Homo sapiens, UniProt Q01959); assay: Dopamine uptake inhibition dose response of hit compounds (Figure 6); format: cell-based; conditions: doses 1 nM to 100 μM, normalized to vehicle
T1 construct: expressed in transfected cells
T1 sequence (Q01959 whole entry): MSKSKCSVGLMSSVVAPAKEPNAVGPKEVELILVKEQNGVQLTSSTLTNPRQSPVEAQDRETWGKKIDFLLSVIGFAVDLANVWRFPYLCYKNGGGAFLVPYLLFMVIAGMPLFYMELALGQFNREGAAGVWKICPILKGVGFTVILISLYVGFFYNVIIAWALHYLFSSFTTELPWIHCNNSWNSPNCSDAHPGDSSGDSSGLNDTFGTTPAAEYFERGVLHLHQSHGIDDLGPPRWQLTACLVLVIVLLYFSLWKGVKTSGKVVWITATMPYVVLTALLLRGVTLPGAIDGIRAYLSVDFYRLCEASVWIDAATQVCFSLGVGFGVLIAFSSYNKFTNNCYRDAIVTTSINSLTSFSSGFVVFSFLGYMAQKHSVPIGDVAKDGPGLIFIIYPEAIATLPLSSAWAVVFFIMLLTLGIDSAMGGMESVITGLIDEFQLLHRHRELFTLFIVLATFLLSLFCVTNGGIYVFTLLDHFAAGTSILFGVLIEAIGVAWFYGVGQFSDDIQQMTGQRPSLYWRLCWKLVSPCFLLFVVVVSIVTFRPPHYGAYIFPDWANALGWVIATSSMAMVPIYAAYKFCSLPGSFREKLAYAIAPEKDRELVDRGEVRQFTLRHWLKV
Description: Dopamine uptake inhibition was conducted using the Neurotransmitter Transporter Uptake Assay Kit (Molecular Devices, prod#R8173). Cells (1 × 10^5/well) were seeded into 96-well plates and incubated for 24 h. The cells were subjected to overnight drug treatment. The following day, wells were washed and incubated for 30 min with a mixture of 1X Hank’s Balanced Salt Solution (HBSS) and 0.1% Bovine Serum Albumin (BSA) Buffer. Dopamine uptake inhibitors were added during the incubation period. Following the incubation, the fluorescent dye was added, and the plate was immediately transferred to the bottom-read fluorescence microplate reader (Spectramax M3, Molecular Devices) for kinetic read-mode. The assay reads the amount of fluorescent activity which increases as fluorescent dye molecules are transported into the cells by the DAT. The read-out for this assay is the slope which equals the fluorescent measurements/time, ultimately denoting the uptake rate.
Data analysis was performed using GraphPad Prism (GraphPad Software, La Jolla, CA). Linear regression analysis was performed on βLAC time points to determine the slope, thus the rate of reaction, for comparison. Furthermore, the slope was also used to determine the degree of dopamine uptake in the dopamine uptake assays. […]

YFP-HA-βlac-DAT [2] = target: T2, YFP-HA-βlac-DAT (Homo sapiens, UniProt Q01959); assay: β-lactamase (βlac) surface expression assay; format: cell-based; conditions: assumed effective EMax
T2 sequence (Q01959 1-171 limits assumed): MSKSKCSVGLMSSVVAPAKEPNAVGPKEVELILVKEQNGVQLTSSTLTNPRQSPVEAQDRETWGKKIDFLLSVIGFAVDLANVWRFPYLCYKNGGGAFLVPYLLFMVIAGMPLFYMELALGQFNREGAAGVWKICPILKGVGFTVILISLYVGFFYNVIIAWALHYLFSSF
T2 sequence (Q01959 237-620 limits assumed): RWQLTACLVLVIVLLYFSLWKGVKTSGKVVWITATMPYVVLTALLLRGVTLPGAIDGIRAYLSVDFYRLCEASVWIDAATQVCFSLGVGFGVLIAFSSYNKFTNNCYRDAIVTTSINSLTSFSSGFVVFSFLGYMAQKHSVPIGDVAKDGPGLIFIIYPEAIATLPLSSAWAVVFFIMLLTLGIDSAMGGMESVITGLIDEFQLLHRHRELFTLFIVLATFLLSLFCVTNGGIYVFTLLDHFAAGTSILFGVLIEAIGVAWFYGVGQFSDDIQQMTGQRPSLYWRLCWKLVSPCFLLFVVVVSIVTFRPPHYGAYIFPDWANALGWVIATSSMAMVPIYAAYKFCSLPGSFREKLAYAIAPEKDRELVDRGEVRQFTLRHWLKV
Description: The βlac surface expression assay was performed by following the method outlined in [Lam et al. (2013)] and [Beerepoot et al. (2015], [2016)]. The assay substrate nitrocefin (BD biosciences) was dissolved in dimethyl sulfoxide (DMSO) at a concentration of 10 mM and frozen at −80°C. Immediately before use, it was thawed and diluted to a final concentration of 100 μM in phosphate buffered saline (PBS). Cells (1 × 10^5/well) were seeded into a poly-D-lysine-coated 48-well plate and incubated for 24 h, prior to drug treatment. Drugs were added to individual wells at varying concentrations and incubated for 16 h. Subsequently, the media was aspirated, and the cells were washed twice with PBS. After removal of the final PBS wash, 200 μL of the nitrocefin solution was added to each well and the absorbance was immediately read. The EPOCH microplate spectrophotometer (BioTek) was used to measure absorbance (486 nm) for each well every minute for 30 min. The rate of reaction (slope of the curve) was used as the readout for the assay ([Beerepoot et al., 2015]). To determine suitable concentration ranges for each drug, they were dissolved in PBS or DMSO at the highest concentration possible. From here, the solutions were serial diluted 1/10 to yield 8 different concentrations. βLAC cells were then treated with the varying drug concentrations and cell viability was recorded using light microscopy. For additional measure, nitrocefin was added and the absorbance was read. For certain cases, Trypan Blue was used to quantitatively differentiate increased cell death from reduced cell division. […] Five or six doses were generally used in subsequent dosing experiments, starting at the highest non-toxic concentration.
Data analysis was performed using GraphPad Prism (GraphPad Software, La Jolla, CA). Linear regression analysis was performed on βLAC time points to determine the slope, thus the rate of reaction, for comparison. Furthermore, the slope was also used to determine the degree of dopamine uptake in the dopamine uptake assays. Non-linear regression, fitting to the log(agonist) vs. response and log(inhibitor) vs. response model curve, was used to determine dose-response relationships of surface expression and uptake assays, respectively. One-way ANOVA with Dunnett’s post hoc-test was used for the β-lactamase assay and one-way ANOVA with Bonferroni correction was used for western blot analysis.
Among these were RTI-1, RTI-2, RTI-5, RTI-6, RTI-11, RTI-20, and PAL-1007. […] The EMax values of all the analyzed drugs are included in Figure 1.
The pharmacological chaperone ability of the 15 ibogaine and tryptamine analogs, shown in Figure 3, were measured using the βlac surface expression assay. HEK cells expressing YFP-HA-βlac-DAT were incubated overnight with these compounds at concentrations varying by log and half-log dilutions, starting at 100 μM final concentration. […] Furthermore, it was important to determine whether the β-carboline analogs could also elicit a chaperone effect because they are not classified as DAT ligands ([Cao et al., 2007]). […] Removing the nitrogen from the ring reduced efficacy as observed with frovatriptan (103 ± 1.4%). […] Evodiamine (54 ± 1.7%) had no chaperone ability and caused a substantial reduction in the surface expression of DAT. Dose-response curves were generated to assess the pharmacological chaperone potencies of select compounds (Figure 4).

YFP-HA-βlac-DAT [3] = target: T2, YFP-HA-βlac-DAT; design: method as in Beerepoot et al., 2016; conditions: previous experiments; ref Beerepoot et al., 2016; cited from earlier work
WT DAT (YFP-HA-DAT) = target: T3, WT DAT (YFP-HA-DAT) (Homo sapiens, UniProt Q01959); assay: Western blot of mature WT DAT protein levels; format: cell-based; conditions: overnight 100 μM
T3 construct: expressed in transfected cells; host or cells: HEK293
T3 sequence (Q01959 whole entry): as the sequence (Q01959 whole entry) above
Description: (§1) Cells (1 × 10^6 cells/well) were seeded onto a 6-well plate and incubated for 24 h. Cells were then treated with drugs and incubated for 16 h. After the incubation period, cells were lysed in RIPA buffer supplemented with protease inhibitors (working concentrations: pepstatin A, 5 μg/mL; leupeptin, 10 μg/mL; aprotinin, 1.5 μg/mL; benzamidine, 0.1 μg/mL; PMSF, 0.1 mM) on ice. At 4°C, cell lysates were gently shaken for 15 min followed by centrifugation at 15,000 rpm for 15 min to pellet debris. The Pierce BCA protein assay kit (Thermo Fisher Scientific, Canada) was used to determine the protein concentration of the supernatant. To reach a concentration of 40 μg of protein per 20 μL, samples were diluted in fresh RIPA buffer with 12.5% Laemmli sample buffer and 2.5% β-Mercaptoethanol prior to being heated to 55°C. The protein was then loaded on a 7.5 or 10% SDS-PAGE gel and run at 100 V for approximately an hour or until the dye front reached the bottom of the gel. Next, protein was transferred to a PVDF membrane at 22 V for 16 h or 100 V for 1 h. Blots were blocked with LI-COR blocking buffer for 1 h and incubated for 1 h at room temperature with rabbit anti-GFP (1:1,000 dilution; Life Technologies, cat#A11122). After washing three times with TBST, blots were incubated with goat anti-rabbit IRDye-680RD secondary antibody (1:15,000; LI-COR, cat#926-68071). As a loading control, blots were incubated with mouse anti-GAPDH (1:5,000, Sigma-Aldrich, Canada, cat#G8795) prior to secondary antibody goat anti-mouse IRDye-800GR (1:5,000 dilution, Rockland, Limerick, PA, cat#610-132-007). All antibodies were diluted in LI-COR blocking buffer. Additionally, REVERT total protein staining (LI-COR, Lincoln, NE) was used as a loading control. […] Mature, fully glycosylated DAT (mDAT = 110 kDa) and immature, ER-resident DAT (iDAT = 75 kDa) were visualized using the Odyssey Imaging System (LI-COR, Lincoln, NE) and Image Studio Version 5.2 software (Supplementary Figure 1).
(§2) We next assessed whether drugs that increase DAT surface expression also increase total protein levels of DAT. Cells expressing YFP-HA-DAT were incubated with select test compounds and DAT protein levels were examined by western blot. The effects of the compounds were assessed on WT DAT and K590A DAT. The K590A mutant is a well-characterized ER-retained, trafficking-deficient DAT mutant ([Miranda et al., 2004]) that can be rescued by pharmacological chaperones ([Beerepoot et al., 2016]).
(§3) FIGURE 5 Effect of noribogaine, tetrahydroharmine, PAL-594, bicifadine, and RTI-20 on WT and K590A DAT expression. […] (B) Quantification of WT mDAT protein levels. […] (D) Quantification of K590A mDAT protein levels. […]

K590A DAT = target: T4, K590A DAT (Homo sapiens, UniProt Q01959, K590A); assay: Western blot of mature K590A DAT protein levels; format: cell-based; conditions: overnight treatment
T4 construct: expressed in transfected cells; host or cells: HEK293
T4 sequence (Q01959 whole entry K590A): as the sequence (Q01959 whole entry) above, with K590A counted along it
Description: as §1, §2, §3

DAT [4] = target: T1, DAT; conditions: read-out: IC50, dopamine uptake inhibition; ref Carroll et al., 2009; cited from earlier work
DAT [5] = target: T1, DAT; conditions: read-out: Ki, DAT binding; ref Carroll et al., 2009; cited from earlier work
[6] = HEK293, HEK cells expressing YFP-HA-βlac-DAT, overnight (16 h) incubation, up to 100 μM, normalized to vehicle, read-out: EMax (%), WT DAT surface expression
[7] = HEK293, read-out: EMax (%), WT DAT surface expression, HEK cells expressing YFP-HA-βlac-DAT, overnight (16 h) incubation, up to 100 μM, normalized to vehicle

## CCCC(NC(C)(C)C)C(=O)c1cccc(Cl)c1 (stereo not drawn) [RTI-12]
DAT [1]
  maximal dopamine uptake inhibition: 96%
YFP-HA-βlac-DAT [2]; [6]
  Emax: 113 ± 6.3%

## CC(NC(C)(C)C)C(=O)c1cccc(Cl)c1 (stereo not drawn) [Bupropion, Bupropion hydrochloride, reference compound]
YFP-HA-βlac-DAT [3]
  previously reported increase of WT DAT surface expression (EMax): 137%
YFP-HA-βlac-DAT [2]; [7]
  Emax: 144 ± 7.7%

## CC1NCCOC1c1cccc(Cl)c1 (stereo not drawn) [PAL-594]
WT DAT (YFP-HA-DAT)
  mature WT DAT (mDAT) protein levels: significantly increase
K590A DAT
  K590A DAT (mDAT) protein levels: statistically significant effect
YFP-HA-βlac-DAT [2]; [6]
  Emax: 166 ± 8.7%

## ibogaine [reference compound]
YFP-HA-βlac-DAT [3]
  previously reported increase of WT DAT surface expression (EMax): 187%
YFP-HA-βlac-DAT [2]; HEK cells expressing YFP-HA-βlac-DAT, overnight (16 h) incubation, up to 100 μM, normalized to vehicle
  EMax (%), WT DAT surface expression: 222 ± 7.9%

## Cc1ccc(C23CNCC2C3)cc1 (stereo not drawn) [Bicifadine, bicifadine]
WT DAT (YFP-HA-DAT)
  mature WT DAT (mDAT) protein levels: significantly increase
K590A DAT
  K590A DAT (mDAT) protein levels: statistically significant effect
YFP-HA-βlac-DAT [2]; [7]
  Emax: 149 ± 15%

## Cc1ccc(C(=O)C(C)NC(C)(C)C)cc1 (stereo not drawn) [RTI-5]
DAT [4]
  IC50: 6.84 µM
DAT [5]
  Ki: > 10 µM
YFP-HA-βlac-DAT [2]; [6]
  Emax: 140 ± 5.5%
